{
  "source": "patent US10111874B2",
  "about": "“Combination therapies for treatment of cancer” (Araxes Pharma LLC, priority 2014, dated 2018)",
  "data": [
    {"biological_target": "T1, KRAS G12C 1-169, his-tagged protein, GDP-loaded (Homo sapiens, UniProt P01116, G12C)", "T1 construct": "KRAS G12C 1-169, his-tagged protein, GDP-loaded", "T1 sequence (P01116 1-169 isoform P01116-2 G12C)": "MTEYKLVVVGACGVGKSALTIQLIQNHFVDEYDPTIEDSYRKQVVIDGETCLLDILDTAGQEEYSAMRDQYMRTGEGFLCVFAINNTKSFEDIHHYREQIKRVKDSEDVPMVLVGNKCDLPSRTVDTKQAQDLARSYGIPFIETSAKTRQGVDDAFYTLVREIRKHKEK", "test": "Biochemical assay: covalent binding to KRAS G12C analyzed by mass spectrometry; note: test concentration or dose not given here", "details": "compounds 1-47, measured at 24 h", "values": [
      {"smiles": "C=CC(=O)N1CC(N2CCN(C(=O)CNc3cc(Cl)c(Cl)cc3O)CC2)C1", "note": "[Example 38, 1-(3-(4-(2-(4,5-dichloro-2-hydroxyphenylamino)acetyl)piperazin-1-yl)azetidin-1-yl)prop-2-en-1-one]", "Binding %": "++ (++indicates binding activity greater than 25% and up to 50%)"},
      {"smiles": "C=CC(=O)N1CCN(c2ncnc3[nH]cc(-c4ccccc4Cl)c23)CC1", "note": "[Compound I-28, 1-(4-(5-(2-chlorophenyl)-7H-pyrrolo[2,3-d]pyrimidin-4-yl)piperazin-1-yl)prop-2-en-1-one]", "Binding %": "+ (+indicates binding activity from 5% to 25%)"},
      {"smiles": "C=CC(=O)N1CCN(c2ncnc3cc(F)c(-c4ccccc4Cl)cc23)CC1", "note": "[Compound I-33, 1-(4-(6-(2-chlorophenyl)-7-fluoroquinazolin-4-yl)piperazin-1-yl)prop-2-en-1-one]", "Binding %": "++ (++indicates binding activity greater than 25% and up to 50%)"},
      {"smiles": "C=CC(=O)N1CCN(c2ncc3cccc(-c4ccccc4Cl)c3n2)CC1", "note": "[Compound I-35, 1-(4-(8-(2-chlorophenyl)quinazolin-2-yl)piperazin-1-yl)prop-2-en-1-one]", "Binding %": "+ (+indicates binding activity from 5% to 25%)"},
      {"smiles": "C=CC(=O)N1CCN(c2ncnc3cc(Cl)c(-c4ccccc4)cc23)CC1", "note": "[Compound I-18, 1-(4-(7-chloro-6-phenylquinazolin-4-yl)piperazin-1-yl)prop-2-en-1-one]", "Binding %": "++ (++indicates binding activity greater than 25% and up to 50%)"},
      {"smiles": "C=CC(=O)N1CCN(c2nc(OC)nc3cc(Cl)c(-c4ccc(Cl)cc4)cc23)CC1", "note": "[Compound I-43, 1-(4-(7-chloro-6-(4-chlorophenyl)-2-methoxyquinazolin-4-yl)piperazin-1-yl)prop-2-en-1-one]", "Binding %": "+++ (+++indicates binding activity greater than 50% and up to 75%)"},
      {"smiles": "C=CC(=O)N1CCN(c2ncnc3cc(Cl)c(-c4ccc(Cl)c(Cl)c4)cc23)CC1", "note": "[Compound I-7, 1-(4-(7-chloro-6-(3,4-dichlorophenyl)quinazolin-4-yl)piperazin-1-yl)prop-2-en-1-one]", "Binding %": "++++ (++++indicates binding activity greater than 75%)"}
    ]},
    {"biological_target": "T1, KRAS G12C 1-169, his-tagged protein, GDP-loaded", "test": "Biochemical assay: covalent binding to KRAS G12C analyzed by mass spectrometry", "details": "compounds 48-246, measured at 2 h", "values": [
      {"smiles": "C=CC(=O)N1CCN(c2nc(OC)nc3cc(-c4ccccc4)c(Cl)cc23)CC1", "note": "[Compound I-94, 1-(4-(6-chloro-2-methoxy-7-phenylquinazolin-4-yl)piperazin-1-yl)prop-2-en-1-one]", "Binding %": "++ (++indicates binding activity greater than 25% and up to 50%)"},
      {"smiles": "C=CC(=O)N1CCN(c2ncnc3cc(-c4ccc(Cl)cc4)c(Cl)cc23)CC1CC#N", "note": "(stereo not shown) [Compound I-110, 2-(1-acryloyl-4-(6-chloro-7-(4-chlorophenyl)quinazolin-4-yl)piperazin-2-yl)acetonitrile]", "Binding %": "+++ (+++indicates binding activity greater than 50% and up to 75%)"},
      {"smiles": "C=CC(=O)N1CCN(c2ncnc3cc(-c4ccc(F)cc4C(F)(F)F)c(Cl)cc23)CC1", "note": "[Compound I-119, 1-(4-(6-chloro-7-(4-fluoro-2-(trifluoromethyl)phenyl)quinazolin-4-yl)piperazin-1-yl)prop-2-en-1-one]", "Binding %": "+++ (+++indicates binding activity greater than 50% and up to 75%)"},
      {"smiles": "C=CC(=O)N1CCN(c2ncnc3cc(-c4cccnc4)c(Cl)cc23)CC1", "note": "[Compound I-90, 1-(4-(6-chloro-7-(pyridin-3-yl)quinazolin-4-yl)piperazain-1-yl)prop-2-en-1-one]", "Binding %": "+ (+indicates binding activity from 5% to 25%)"},
      {"smiles": "C=CC(=O)N1CCN(c2ncnc3cc(-c4nc(N)ncc4C)c(Cl)cc23)CC1", "note": "[Compound I-179, 1-(4-(7-(2-amino-5-methylpyrimidin-4-yl)-6-chloroquinazolin-4-yl)piperazin-1-yl)prop-2-en-1-one]", "Binding %": "+ (+indicates binding activity from 5% to 25%)"},
      {"smiles": "C=CC(=O)N1CCN(c2ncnc3cc(-n4ccc(Cl)cc4=O)c(Cl)cc23)CC1", "note": "[Compound I-181, 1-(4-(4-acryloylpiperazin-1-yl)-6-chloroquinazolin-7-yl)-4-chloropyridin-2(1H)-one]", "Binding %": "+ (+indicates binding activity from 5% to 25%)"},
      {"smiles": "C=CC(=O)N1CCN(c2ncnc3cc(-c4cccc(Cl)c4)c(Cl)cc23)CC1", "note": "[Compound I-73, 1-(4-(6-chloro-7-(3-chlorophenyl)quinazolin-4-yl)piperazin-1-yl)prop-2-en-1-one]", "Binding %": "++ (++indicates binding activity greater than 25% and up to 50%)"},
      {"smiles": "C=CC(=O)N1CCN(c2ncnc3cc(-c4cc(F)ccc4F)c(Cl)cc23)CC1", "note": "[Compound I-113, 1-(4-(6-chloro-7-(2,5-difluorophenyl)quinazolin-4-yl)piperazin-1-yl)prop-2-en-1-one]", "Binding %": "+++ (+++indicates binding activity greater than 50% and up to 75%)"},
      {"smiles": "C=CC(=O)N1CCN(c2ncnc3cc(-c4cccc(CC)c4)c(Cl)cc23)CC1", "note": "[Compound I-79, 1-(4-(6-chloro-7-(3-ethylphenyl)quinazolin-4-yl)piperazin-1-yl)prop-2-en-1-one]", "Binding %": "+ (+indicates binding activity from 5% to 25%)"}
    ]},
    {"biological_target": "T1, KRAS G12C 1-169, his-tagged protein, GDP-loaded", "test": "Biochemical assay: covalent binding to KRAS G12C analyzed by mass spectrometry", "details": "compounds 247-342, measured at 30 min", "values": [
      {"smiles": "O=C(C#CCO)N1CCN(c2ncnc3cc(-c4ccc(F)cc4F)c(Cl)cc23)CC1", "note": "[Compound I-247, 1-(4-(6-chloro-7-(2,4-difluorophenyl)quinazolin-4-yl)piperazain-1-yl)-4-hydoxybut-2-yn-1-one]", "Binding %": "+++ (+++indicates binding activity greater than 50% and up to 75%)"},
      {"smiles": "C=CC(=O)N1CCN(c2ncnc3cc(-c4c(O)ccc5c4CCCC5)c(Cl)cc23)CC1", "note": "[Compound I-250, 1-(4-(6-chloro-7-(2-hydroxy-5,6,7,8-tetrahydronaphthalen-1-yl)quinazolin-4-yl)piperazin-1-yl)prop-2-en-1-one]", "Binding %": "++ (++indicates binding activity greater than 25% and up to 50%)"},
      {"smiles": "C=CC(=O)N1CCN(c2ncnc3c(F)c(-c4c(C)c(C)cc5cn[nH]c45)c(Cl)cc23)CC1", "note": "[Compound I-255, 1-(4-(6-chloro-7-(5,6-dimethyl-1H-indazol-7-yl)-8-fluoroquinaolin-4-yl)piperazin-1-yl)prop-2-en-1-one]", "Binding %": "+++ (+++indicates binding activity greater than 50% and up to 75%)"},
      {"smiles": "C=CC(=O)N1CCN(c2ncnc3c(F)c(-c4c(C)ccc5cn[nH]c45)c(Cl)cc23)CC1", "note": "[Compound I-274, 1-(4-(6-chloro-8-fluoro-7-(6-methyl-1H-indazol-7-yl)quinazolin-4-yl)piperazin-1-yl)prop-2-en-1-one]", "Binding %": "++++ (++++indicates binding activity greater than 75%)"},
      {"smiles": "CN(C)C/C=C/C(=O)N1CCN(c2ncnc3c(F)c(-c4c(O)cccc4F)c(Cl)cc23)CC1", "note": "[Compound 301, (E)-1-(4-(6-chloro-8-fluoro-7-(2-fluoro-6-hydroxyphenyl)quinazolin-4-yl)piperazin-1-yl)-4-(dimethylamino)but-2-en-1-one]", "Binding %": "++ (++indicates binding activity greater than 25% and up to 50%)"},
      {"smiles": "C=CC(=O)N1CCN(c2nc(=O)[nH]c3cc(-c4c(C)ccc5[nH]ncc45)c(Cl)cc23)CC1", "note": "[Compound 326, 4-(4-acryloylpiperazin-1-yl)-6-chloro-7-(5-methyl-1H-indazol-4-yl)quinazolin-2(1H)-one]", "Binding %": "+ (+indicates binding activity from 5% to 25%)"},
      {"smiles": "C=CC(=O)N1CCN(c2ncnc3c(F)c(-c4c(F)ccc(F)c4O)c(Cl)cc23)CC1", "note": "[Compound I-277, 1-(4-(6-chloro-7-(3,6-ddifluoro-2-hydroxyphenyl)-8-fluoroquinazolin-4-yl)piperazin-1-yl)prop-2-en-1-one]", "Binding %": "+ (+indicates binding activity from 5% to 25%)"},
      {"smiles": "C=CC(=O)N1CCN(c2ncnc3c(F)c(-c4c(C)cccc4OC)c(Cl)cc23)CC1", "note": "[Compound I-287, 1-(4-(6-chloro-8-fluoro-7-(2-methoxy-6-methylphenyl)quinazolin-4-yl)piperazin-1-yl)prop-2-en-1-one]", "Binding %": "++ (++indicates binding activity greater than 25% and up to 50%)"},
      {"smiles": "C=CC(=O)N1CCN(c2nc(NC)nc3c(F)c(-c4c(C)ccc5[nH]ncc45)c(Cl)cc23)CC1", "note": "[Compound I-257, 1-(4-(6-chloro-8-fluoro-7-(5-methyl-1H-indazol-4-yl)-2-(methylamino)quinazolin-4-yl)piperazin-1-yl)prop-2-en-1-one]", "Binding %": "++++ (++++indicates binding activity greater than 75%)"},
      {"smiles": "CC(C)/C=C(\\C#N)C(=O)N1CCN(c2ncnc3c(F)c(-c4c(O)cccc4F)c(Cl)cc23)CC1", "note": "[Compound I-282, (E)-2-(4-(6-chloro-8-fluoro-7-(2-fluoro-6-hydroxyphenyl)quinazolin-4-yl)piperazine-1-carbonyl)-4-methylpent-2-enenitrile]", "Binding %": "+++ (+++indicates binding activity greater than 50% and up to 75%)"}
    ]},
    {"biological_target": "T1, KRAS G12C 1-169, his-tagged protein, GDP-loaded", "test": "Biochemical assay: covalent binding to KRAS G12C analyzed by mass spectrometry", "details": "determined at 2 hrs", "values": [
      {"smiles": "C=CC(=O)N1CC(N2CCN(C(=O)CCc3cc(C4CC4)c(Cl)cc3O)CC2)C1", "note": "[II-58, 1-(3-(4-(3-(4-Chloro-5-cyclopropyl-2-hydroxyphenyl)propanoyl)piperazin-1-yl)azetidin-1-yl)prop-2-en-1-one]", "Binding %": "+ (+indicates binding activity from 5% to 20%)"},
      {"smiles": "C=CC(=O)N1CCN(C(=O)c2cc(Cl)c(-c3ccccc3)cc2O)CC1", "note": "[III-42, 1-(4-(2-Chloro-5-hydroxy-[1,1′-biphenyl]-4-carbonyl)piperazin-1-yl)prop-2-en-1-one]", "Binding %": "+ (+indicates binding activity from 5% to 20%)"},
      {"smiles": "C=CC(=O)N1CC(N2CCN(C(=O)C(C)Nc3cc(C4CCC4)c(Cl)cc3O)CC2)C1", "note": "(stereo not shown) [II-59, 1-(3-(4-(2-(4-chloro-5-cyclobutyl-2-hydroxyphenylamino)propanoyl)piperazin-1-yl)azetidin-1-yl)prop-2-en-1-one]", "Binding %": "++ (++indicates binding activity greater than 20%)"}
    ]},
    {"biological_target": "T1, KRAS G12C 1-169, his-tagged protein, GDP-loaded", "test": "Biochemical assay: covalent binding to KRAS G12C analyzed by mass spectrometry", "details": "determined at 24 hrs", "values": [
      {"smiles": "C=CC(=O)N1CCC(N2CCN(C(=O)CNc3cc(C)c(Cl)cc3O)CC2)C1", "note": "(stereo not shown) [II-7, 1-(3-(4-(2-(4-chloro-2-hydroxy-5-methylphenylamino)-acetyl)piperazin-1-yl)pyrrolidin-1-yl)prop-2-en-1-one]", "Binding %": "++ (++indicates binding activity greater than 15% and up to 25%)"},
      {"smiles": "C=CC(=O)N1CC(N2CCN(C(=O)CNc3cc(Cl)c(Cl)cc3C(N)=O)CC2)C1", "note": "[II-10, 2-(2-(4-(1-acryloylazetidin-3-yl)piperazin-1-yl)-2-oxoethylamino)-4,5-dichlorobenzamide]", "Binding %": "+ (+indicates binding activity from 5% to 15%)"}
    ]}
  ]
}
